Experimental data reported in US20030036103A1, “Methods and compositions for diagnosis and treatment of vascular conditions” (priority 2001, published 2003).

Key:
Format in all cases: cell-based
[1] = test system: human microvascular endothelial cells (HMVEC); assay: TNFα-induced heparanase secretion by endothelial cells with signaling inhibitors (immunoblot); settings: HMVEC incubated with TNFα and inhibitor for 16 h; wortmannin 0.1 and 0.5 μM, Ly294002 10 and 50 μM, SN50 10 μM, FPT inhibitor III 100 μM, PD98059 5 μM, SB203580 650 nM, ZM336372 200 nM, caspase inhibitor III 10 μM; FIG. 5
Procedure: Human microvascular endothelial cells (HMVEC) were grown in 48-well plates (˜90% confluency). To induce heparanase activity, culture media was replaced with 200 μl Dulbecco's modified Eagle's medium (DMEM) complemented with 1% bovine serum albumin (BSA), 100 ng biotinylated HS and TNFα with or without (FIG. 5A) P13 kinase inhibitors (wortmannin, 0.1 μM and 0.5 μM, or Ly294002, 10 μM and 50 μM), (FIG. 5B) NFκB inhibitor (SN50, 10 μM), several MAP kinase inhibitors (FIG. 5C)—either 100 μM FPT inhibitor III (FPT, inhibits Ras processing in cells), 5 μM MAP kinase (MEK), inhibitor PD98059 (PD), 650 nM p38 kinase inhibitor SB203580 (SB), 200 nM c-Raf inhibitor ZM336372 (ZM); or an inhibitor cocktail (Cl) that contains all of the four inhibitors; or broad-spectrum caspase inhibitor III (Casp-I, 10 μM) (FIG. 5D). The cells were incubated with TNFα and the inhibitors for 16 h. The culture media was collected and the secreted proteins were analyzed by SDS-PAGE and heparanase protein was detected by immunoblotting using polyclonal anti-human heparanase antibody.

[2] = test system: human microvascular endothelial cells (HMVEC); assay: Induction of endothelial heparanase protein by cytokines (immunoblot); settings: TNFα
Procedure: Experiments were done on human microvascular endothelial cells (HMVEC) grown in 48-well plates (˜90% confluency). To induce heparanase activity, culture media was replaced with 200 μl Dulbecco's modified Eagle's medium (DMEM) complemented with 1% bovine serum albumin (BSA) and 100 ng biotinylated HS with or without stimulants (5 ng/ml TGFα, 1 ng/ml IL 1β, or 200 ng/ml VEGF). Cells were incubated in a cell culture incubator for 16-18 hours and the entire 200 μmedia was added to a streptavidin-coated plate and followed by standard color development assay as described in Example 2. The secreted proteins were analyzed by SDS-PAGE and heparanase protein was detected by immunoblotting using polyclonal anti-human heparanase antibody.
Human microvascular endothelial cells (HMVEC) were grown in 48-well plates (˜90% confluency). To induce heparanase activity, culture media was replaced with 200 μl Dulbecco's modified Eagle's medium (DMEM) complemented with 1% bovine serum albumin (BSA) and 100 ng biotinylated HS with 0, 0.02, 1.5 and 5 ng/ml of TNFα. The secreted heparanase was detected by immunoblotting the culture media with anti-human heparanase antibody.

endothelial cells = assay: Heparanase expression in endothelial cells induced by lysolecithin

| Compound | inhibition of TNFα-induced heparanase secretion [1] | further results |
| --- | --- | --- |
| COc1cccc(-c2cc(=O)c3ccccc3o2)c1N [PD98059] | do not inhibit |  |
| C[S+]([O-])c1ccc(-c2nc(-c3ccncc3)c(-c3ccc(F)cc3)[nH]2)cc1 (stereo not drawn) [SB203580] | do not inhibit |  |
| Cc1ccc(NC(=O)c2cccc(N(C)C)c2)cc1NC(=O)c1ccc(O)cc1 [ZM336372] | do not inhibit |  |
| COC(=O)CC(NC(=O)OC(C)(C)C)C(=O)CF (stereo not drawn) [caspase inhibitor III] | blocked heparanase secretion |  |
| TNFα |  | induction of heparanase in endothelial cells [2]: induces heparanase |
| lysolecithin |  | induction of heparanase expression in endothelial cells (endothelial cells): induces heparanase expression |
